Patent US20110098242A1, “Methods and Compositions for Diagnosing and Treating Cervical Intraepithelial Neoplasia and Cervical Cancer” (priority 2008, published 2011)

Tests used:
Format in all cases: cell-based, human
[1] = system: cystatin E/M gene promoter; assay: Sodium bisulfite PCR and sequencing of cystatin E/M promoter CpG methylation in HeLa cells; conditions: HeLa cells after treatment with 5-AzaCdR
Method: Having established the promoter activity, four different cell lines and 18 primary tumors were examined for CpG methylation using the sodium bisulfite protocol. Normal endometrium from 16 of the tumors, four different non-involved normal lymphocytes and a lung tissue were used as controls. The analysis was performed using the sequences spanning the −14 to −151 by region of the promoter (NT—033903.7). […] Untreated HeLa cells yielded the 138 by product with the methylation specific PCR. Cell lines Caski, C41, C33A, three of 21 normal tissues (14%) and 7 of 16 tumors (44%) gave the PCR product with both the unmethylation and methylation specific PCRs. Five other tumors (31%) contained only the methlyation specific product. Thus, there was a significant frequency of methylated promoter in the cervical tumors ([…] in tumors versus 3 of 21, 14% in normals, P<0.01, Student's t-test). Methylation in the three normal endometrial tissues could also represent tumor cell contamination. Four of the tumors contained methylation and point mutation (Table 1, FIG. 4A) indicating possible two hits for the functional inactivation of the cystatin E/M gene.
To confirm promoter hypermethylation in the cell lines, sequencing was carried out on the PCR products cloned into the pTOPO plasmid vector. […]

cystatin E/M gene = assay: RT PCR analysis of cystatin E/M expression in treated SiHa cells
cystatin E/M [2] = assay: Immunofluorescence of cystatin E/M protein in treated HeLa cells; conditions: 24 hours post-treatment, 5 μM 5-AzaCdR
From the text: (§1) To verify that cystatin E/M expression was not limited to RNA synthesis and to identify the cellular location of protein expression, immunofluorescence (IF) was used. Cystatin E/M expression was absent in the untreated HeLa cells. […] There was uniform expression in the cytoplasm of all cells. […] Thus, re-expression of the gene by treatment with 5-AzaCdR and TSA in HeLa and SiHa cells, respectively, confirmed promoter methylation and/or histone deacetylation playing a role in the inactivation of cystatin E/M expression in these two cell lines.
(§2) Cells were grown overnight on cover slips to semiconfluency (about 70 to 80%) and treated with 5- AzaCdR or TSA, or transfected with plasmid DNAs. Immunofluorescence was performed using the anti cystatin E/M antibody (R & D Systems, Minneapolis, Minn.) following an established protocol. See LoTempio et al. (2005).

cystatin E/M [3] = assay: Immunofluorescence of cystatin E/M protein in treated SiHa cells; conditions: TSA treatment
From the text: as §1, §2

With `Nc1ncn([C@H]2C[C@H](O)[C@@H](CO)O2)c(=O)n1` [5-AzaCdR, 5′Aza 2-deoxycytidine] the “methylation of C residues in promoter CpG sequences” value [1] was “demethylation of the C residues”, the “cystatin E/M RNA expression” value (cystatin E/M gene; 5 μM and 10 μM 5-AzaCdR) was “did not show expression” and the “cystatin E/M RNA expression” value (cystatin E/M gene; 50 μM 5-AzaCdR) was “low level expression”. For the same compound, the “cystatin E/M protein expression by immunofluorescence” value (cystatin E/M [2]) was “cystatin E/M expression was observed”.

In the case of `CC(/C=C/C(=O)NO)=C\[C@@H](C)C(=O)c1ccc(N(C)C)cc1` [TSA, Trichostatin A], the “cystatin E/M RNA expression” value (cystatin E/M gene; TSA 150 μM) was “High level RNA expression” and the “cystatin E/M protein expression by immunofluorescence” value (cystatin E/M [3]) was “uniform cytoplasmic protein expression”.
